The results in this text go back to DBAASP.

Each structure is given as a SMILES string. Values after ≈ are worked out from the molar mass of the structure shown.

Among the test systems are Escherichia coli; Serratia marcescens; Escherichia coli BW25113.
What all share (experiment): ≥ marks a high value that may be exact or a test limit, other limits are often not marked, values filed in µg/mL are converted to µM
Assay [1] concerns Bacillus subtilis ATCC 6051.
For assay [2], the system named is Escherichia coli NEB5alpha.
For assay [3], the system named is Pseudomonas aeruginosa ATCC 9027.
For assay [4], the system named is Bacillus subtilis KCTC 1021.
Assay [5] concerns Shigella dysenteriae ATCC 9752.
Assay [6] relates to Salmonella enterica subsp. enterica serovar Typhimurium ATCC 14028.
In assay [7] the test system is Micrococcus luteus ATCC 4698.
For assay [8], the system named is Klebsiella pneumoniae ATCC 10031.
For assay [9], the system named is Lactiplantibacillus plantarum 8014.
Assay [10] relates to Lacticaseibacillus rhamnosus 7469.
Assay [11] relates to Candida parapsilosis CGMCC 2.3989.
Assay [12] deals with Staphylococcus aureus ATCC 29213.
Assay [13] has as its system Candida tropicalis CGMCC 2.1975.
The test system of assay [14] is Candida albicans CGMCC 2.2086.
Assay [15] relates to Staphylococcus aureus ATCC 25923.
For assay [16], the system named is Staphylococcus epidermidis ATCC 12228.
The test system of assay [17] is Salmonella enterica subsp. enterica serovar Typhimurium C77-31.
Assay [18] concerns Escherichia coli ATCC 15597.
In assay [19] the test system is Salmonella typhimurium DA6192.
In assay [20] the test system is Bacillus subtilis ATCC 6633.
In assay [21] the test system is Staphylococcus aureus ATCC 6538.
In assay [22] the test system is Micrococcus luteus ATCC 49732.
The test system of assay [23] is Pseudomonas aeruginosa ATCC 27853.
Assay [24] deals with Klebsiella pneumoniae NCTC 5055.

A word on the MIC: it is the smallest concentration in the dilution series that meets the test's criterion for growth inhibition. Take `CC[C@H](C)[C@H](NC(=O)[C@H](CCCN=C(N)N)NC(=O)CNC(=O)[C@H](C)NC(=O)[C@H](CCC(N)=O)NC(=O)[C@@H]1CCCN1C(=O)[C@@H](N)CC(N)=O)C(=O)N[C@@H](CCCCN)C(=O)N[C@H](C(=O)N[C@H](C(=O)N[C@H](C(=O)N[C@@H](CO)C(=O)N[C@@H](Cc1ccccc1)C(=O)N[C@@H](CC(=O)O)C(=O)N[C@@H](CC(C)C)C(=O)N1CCC[C@H]1C(=O)N[C@@H](C)C(=O)N[C@@H](CC(C)C)C(=O)N[C@@H](CCCN=C(N)N)C(=O)N[C@@H](Cc1ccccc1)C(=O)N[C@@H](CC(C)C)C(=O)N[C@@H](CCCCN)C(=O)N[C@@H](CC(C)C)C(=O)O)[C@@H](C)O)C(C)C)[C@@H](C)O` [NPQAGRIKTVTSFDLPALRFLKL]: the values for the MIC in assay [1] and in assay [2] were at least 125 µM and at least 250 µM, respectively.
On to `CC[C@H](C)[C@H](NC(=O)[C@H](Cc1cnc[nH]1)NC(=O)[C@H](CCCN=C(N)N)NC(=O)[C@H](CC(N)=O)NC(=O)[C@@H](NC(=O)[C@@H](N)CC(N)=O)C(C)C)C(=O)N[C@H](C(=O)N[C@@H](CC(=O)O)C(=O)N[C@@H](CCCCN)C(=O)N[C@@H](CC(C)C)C(=O)O)C(C)C` [NVNRHIVDKL], for which the MIC in [1] and in assay [2] was at least 1000 µM throughout.
As for `CC[C@H](C)[C@H](NC(=O)CN)C(=O)N[C@@H](CC(C)C)C(=O)N[C@@H](CC(=O)O)C(=O)N[C@H](C(=O)N[C@@H](CC(C)C)C(=O)N[C@@H](CCCCN)C(=O)N[C@@H](CCC(N)=O)C(=O)N[C@@H](Cc1ccccc1)C(=O)N[C@@H](C)C(=O)N[C@@H](CCCCN)C(=O)NCC(=O)N[C@H](C(=O)NCC(=O)N[C@@H](CCCCN)C(=O)N[C@@H](Cc1ccccc1)C(=O)N[C@@H](CC(C)C)C(=O)N[C@H](C(=O)N[C@@H](CCCCN)C(=O)NCC(=O)N[C@@H](C)C(=O)N[C@@H](C)C(=O)N[C@@H](CCC(N)=O)C(=O)O)C(C)C)C(C)C)[C@@H](C)O` [GILDTLKQFAKGVGKFLVKGAAQ], the minimal inhibitory concentration (MIC) in [3] is 83.7 µM (≈ 200 µg/mL); in [4], 10.5 µM (≈ 25 µg/mL); with Escherichia coli it was 10.5 µM (≈ 25 µg/mL); in assay [5] it was 20.9 µM (≈ 50 µg/mL); in assay [6] it was over 83.7 µM; in assay [7], at least 83.7 µM. Also, the minimal inhibitory concentration (MIC) was at least 41.8 µM in assay [8] and at least 83.7 µM in the assay with Serratia marcescens.
In the case of `CC[C@H](C)[C@H](NC(=O)CN)C(=O)N[C@@H](CC(C)C)C(=O)N[C@@H](CC(=O)O)C(=O)N[C@H](C(=O)N[C@@H](CC(C)C)C(=O)N[C@@H](CCCCN)C(=O)N[C@@H](CCC(N)=O)C(=O)N[C@@H](Cc1ccccc1)C(=O)N[C@@H](C)C(=O)N[C@@H](CCCCN)C(=O)NCC(=O)N[C@H](C(=O)NCC(=O)N[C@@H](Cc1c[nH]c2ccccc12)C(=O)N[C@@H](CC(=O)O)C(=O)N[C@@H](CC(C)C)C(=O)N[C@H](C(=O)N[C@@H](CCCCN)C(=O)NCC(=O)N[C@@H](C)C(=O)N[C@@H](C)C(=O)N[C@@H](CCC(N)=O)C(=O)O)C(C)C)C(C)C)[C@@H](C)O` [GILDTLKQFAKGVGWDLVKGAAQ], the MIC in assay [3] was over 82.8 µM; in assay [4], at least 82.8 µM; against Escherichia coli, over 82.8 µM; in assay [5], at least 82.8 µM; in assay [6], over 82.8 µM; in assay [7], at least 82.8 µM. The MIC (in assay [8]; against Serratia marcescens) was at least 82.8 µM throughout.
Turning to `CC[C@H](C)[C@H](NC(=O)[C@H](C)NC(=O)CNC(=O)[C@H](CCCCN)NC(=O)[C@H](CCC(=O)O)NC(=O)[C@H](CCC(=O)O)NC(=O)[C@H](CC(=O)O)NC(=O)[C@H](CCC(=O)O)NC(=O)[C@H](CC(N)=O)NC(=O)[C@H](CCCN=C(N)N)NC(=O)CNC(=O)[C@@H](N)CCC(N)=O)C(=O)N[C@H](C(=O)N[C@@H](CCCCN)C(=O)N[C@H](C(=O)N[C@@H](CCCCN)C(=O)O)C(C)C)C(C)C` [QGRNEDEEKGAIVKVK], the minimum inhibitory concentration (MIC) in assay [1] and in assay [2] was at least 1000 µM each time.
Regarding `CC[C@H](C)[C@H](N)C(=O)N[C@@H](Cc1cnc[nH]1)C(=O)N[C@@H](Cc1cnc[nH]1)C(=O)N[C@H](C(=O)N[C@@H](Cc1cnc[nH]1)C(=O)N[C@@H](Cc1cnc[nH]1)C(=O)N[C@@H](Cc1cnc[nH]1)C(=O)N[C@H](C(=O)N[C@@H](Cc1cnc[nH]1)C(=O)N[C@@H](Cc1cnc[nH]1)C(=O)N[C@H](C(=O)N[C@@H](Cc1cnc[nH]1)C(=O)N[C@@H](Cc1cnc[nH]1)C(=O)N[C@@H](Cc1cnc[nH]1)C(=O)N[C@H](C(=O)N[C@@H](Cc1cnc[nH]1)C(=O)N[C@@H](Cc1cnc[nH]1)C(=O)N[C@H](C(=O)N[C@@H](Cc1cnc[nH]1)C(=O)N[C@@H](Cc1cnc[nH]1)C(=O)N[C@@H](Cc1cnc[nH]1)C(=O)N[C@H](C(=O)N[C@@H](Cc1cnc[nH]1)C(=O)N[C@@H](Cc1cnc[nH]1)C(=O)N[C@H](C(=O)N[C@@H](Cc1cnc[nH]1)C(=O)N[C@@H](Cc1cnc[nH]1)C(=O)N[C@@H](Cc1cnc[nH]1)C(N)=O)[C@@H](C)CC)[C@@H](C)CC)[C@@H](C)CC)[C@@H](C)CC)[C@@H](C)CC)[C@@H](C)CC)[C@@H](C)CC` [IHHIHHHIHHIHHHIHHIHHHIHHIHHH], the MIC in [9] was 8 µM (≈ 29.3 µg/mL); in assay [10], at least 64 µM; in assay [11], 2 µM (≈ 7.33 µg/mL); in assay [12], over 64 µM; in [13], 1 µM (≈ 3.67 µg/mL); in assay [6], 64 µM (≈ 235 µg/mL). Moreover, the MIC in assay [14] was 2 µM (≈ 7.33 µg/mL); in [15], over 64 µM; in [16], over 64 µM; in [17] it was at least 64 µM.
`CC[C@H](C)[C@H](NC(=O)[C@@H]1CCCN1C(=O)[C@H](CCCN=C(N)N)NC(=O)[C@H](CCCN=C(N)N)NC(=O)[C@H](CCCN=C(N)N)NC(=O)[C@@H](N)CCCN=C(N)N)C(=O)N[C@@H](CCCN=C(N)N)C(=O)N[C@@H](CCCN=C(N)N)C(=O)N[C@@H](CCCN=C(N)N)C(=O)N1CCC[C@H]1C(=O)N[C@H](C(=O)N[C@@H](CCCN=C(N)N)C(=O)N1CCC[C@H]1C(=O)N1CCC[C@H]1C(=O)N[C@@H](Cc1c[nH]c2ccccc12)C(=O)N[C@@H](Cc1ccc(O)cc1)C(=O)N[C@@H](CCCN=C(N)N)C(=O)O)[C@@H](C)CC` [RRRRPIRRRPIRPPWYR]: in the assay with Escherichia coli BW25113, the minimum inhibitory concentration (MIC) was 16 µM (≈ 38.2 µg/mL).
With `CC[C@H](C)[C@H](N)C(=O)N[C@H](C(=O)N[C@@H](CCCCN)C(=O)N[C@H](C(=O)N[C@H](C(=O)N[C@@H](C)C(=O)N[C@@H](CCCCN)C(=O)N[C@@H](CC(C)C)C(=O)N[C@@H](CC(C)C)C(=O)N[C@@H](CC(N)=O)C(=O)N[C@@H](CCCN=C(N)N)C(=O)N[C@@H](CC(C)C)C(=O)N[C@H](C(=O)N[C@@H](CCCCN)C(=O)N[C@H](C(=O)N[C@@H](CC(C)C)C(=O)N[C@@H](CO)C(=O)N[C@@H](CCCCN)C(=O)O)[C@@H](C)CC)[C@@H](C)O)[C@@H](C)CC)C(C)C)[C@@H](C)O` [ITKVIAKLLNRLTKILSK], the MIC is 3.1 µM (≈ 6.36 µg/mL) in assay [18]; 16.7 µM (≈ 34.3 µg/mL) in [19]; 4.7 µM (≈ 9.65 µg/mL) in assay [20]; 5.2 µM (≈ 10.7 µg/mL) in assay [21]; 1.05 µM (≈ 2.16 µg/mL) in assay [22]; 3.1 µM (≈ 6.36 µg/mL) in assay [23]. In addition, the minimum inhibitory concentration (MIC) in [24] is 12.5 µM (≈ 25.7 µg/mL).
